ChEMBL document CHEMBL3885861, “Open TG-GATES”

Organism: Rattus norvegicus
Test: Open TG-GATES - Regimen: Single
Format: toxicity, organism-based, Sprague-Dawley
Design: regimen Single, gender Male, age 6 weeks
Details: in vivo, sc, 0 mg/kg, route subcutaneous injection, dose 0 ug/Kg, dose level Control; for APTT / Bas / Eos / Fbg / Hb / Ht / Lym / MCH / MCHC / MCV / Mono / Neu / PT / Plat / RBC / Ret / WBC: tissue Blood; for KIDNEY_L / KIDNEY_R / KIDNEY_TOTAL: tissue Kidney; for LIVER: tissue Liver; for A/G / ALP / ALT / AST / BUN / CRE / Ca / Cl / DBIL / GLC / IP / K / LDH / Na / PL / RALB / TBIL / TC / TG / TP / gamma-GTP: tissue Plasma

## CC(=O)O.N=C(N)NCCC[C@@H](NC(=O)[C@@H]1CCCN1C(=O)[C@@H]1CSSCCC(=O)N[C@@H](Cc2ccc(O)cc2)C(=O)N[C@@H](Cc2ccccc2)C(=O)N[C@@H](CCC(N)=O)C(=O)N[C@@H](CC(N)=O)C(=O)N1)C(=O)NCC(N)=O [DESMOPRESSIN ACETATE]
3 h
  TERMINAL_BW: 211.5 g
  APTT: 16.1 s
  Bas: 0%
  Eos: 0.8%
  Fbg: 234.4 mg/dL
  Hb: 12.9 g/dL
  Ht: 39.7%
  Lym: 77.8%
  MCH: 21.7 pg
  MCHC: 32.5%
  MCV: 66.7 fL
  Mono: 5.8%
  Neu: 16%
  PT: 12.1 s
  Plat: 119.2 x10_4/uL
  RBC: 595 x10_4/ul
  Ret: 11.1%
  WBC: 80.6 x10_2/uL
  KIDNEY_L: 0.9 g
  KIDNEY_R: 1 g
  KIDNEY_TOTAL: 1.9 g
  LIVER: 10.2 g
  A/G: 2.1
  ALP: 1272 IU/L
  ALT: 37.8 IU/L
  AST: 66.8 IU/L
  BUN: 12.2 mg/dL
  CRE: 0.3 mg/dL
  Ca: 11.1 mg/dL
  Cl: 104.2 meq/L
  DBIL: 0.01 mg/dL
  GLC: 188.6 mg/dL
  IP: 9.2 mg/dL
  K: 4.8 meq/L
  LDH: 104 IU/L
  Na: 138.6 meq/L
  PL: 149.4 mg/dL
  RALB: 3.7 g/dL
  TBIL: 0.042 mg/dL
  TC: 82.6 mg/dL
  TG: 81.6 mg/dL
  TP: 5.5 g/dL
  gamma-GTP: 0.8 IU/L
6 h
  TERMINAL_BW: 204.5 g
  APTT: 18 s
  Bas: 0%
  Eos: 1.2%
  Fbg: 239 mg/dL
  Hb: 12.9 g/dL
  Ht: 39.7%
  Lym: 75.6%
  MCH: 21 pg
  MCHC: 32.5%
  MCV: 64.6 fL
  Mono: 8.6%
  Neu: 14.4%
  PT: 12.6 s
  Plat: 109.8 x10_4/uL
  RBC: 616 x10_4/ul
  Ret: 8.8%
  WBC: 104 x10_2/uL
  KIDNEY_L: 0.9 g
  KIDNEY_R: 0.9 g
  KIDNEY_TOTAL: 1.8 g
  LIVER: 9.2 g
  A/G: 2.1
  ALP: 1325 IU/L
  ALT: 32 IU/L
  AST: 62 IU/L
  BUN: 12 mg/dL
  CRE: 0.4 mg/dL
  Ca: 11.2 mg/dL
  Cl: 105.2 meq/L
  DBIL: 0.01 mg/dL
  GLC: 199.2 mg/dL
  IP: 10 mg/dL
  K: 5 meq/L
  LDH: 99.4 IU/L
  Na: 137.8 meq/L
  PL: 145.6 mg/dL
  RALB: 3.7 g/dL
  TBIL: 0.048 mg/dL
  TC: 85.2 mg/dL
  TG: 53.6 mg/dL
  TP: 5.5 g/dL
  gamma-GTP: 1 IU/L
9 h
  TERMINAL_BW: 199.2 g
  APTT: 16.6 s
  Bas: 0%
  Eos: 1.2%
  Fbg: 230.8 mg/dL
  Hb: 12.8 g/dL
  Ht: 39.7%
  Lym: 66.6%
  MCH: 21.2 pg
  MCHC: 32.2%
  MCV: 65.8 fL
  Mono: 14%
  Neu: 18.2%
  PT: 12.7 s
  Plat: 119.2 x10_4/uL
  RBC: 603.8 x10_4/ul
  Ret: 9.5%
  WBC: 99.4 x10_2/uL
  KIDNEY_L: 0.9 g
  KIDNEY_R: 0.9 g
  KIDNEY_TOTAL: 1.8 g
  LIVER: 8.5 g
  A/G: 2.1
  ALP: 1072.6 IU/L
  ALT: 31 IU/L
  AST: 62.2 IU/L
  BUN: 11.6 mg/dL
  CRE: 0.3 mg/dL
  Ca: 10.8 mg/dL
  Cl: 105.8 meq/L
  DBIL: 0.012 mg/dL
  GLC: 189.6 mg/dL
  IP: 10.8 mg/dL
  K: 5 meq/L
  LDH: 88.8 IU/L
  Na: 138.2 meq/L
  PL: 140 mg/dL
  RALB: 3.6 g/dL
  TBIL: 0.046 mg/dL
  TC: 82.2 mg/dL
  TG: 52.4 mg/dL
  TP: 5.3 g/dL
  gamma-GTP: 0.6 IU/L
24 h
  TERMINAL_BW: 222.1 g
  APTT: 16.1 s
  Bas: 0%
  Eos: 1%
  Fbg: 241.7 mg/dL
  Hb: 12.7 g/dL
  Ht: 39.6%
  Lym: 75%
  MCH: 21.3 pg
  MCHC: 32.2%
  MCV: 66 fL
  Mono: 7.8%
  Neu: 16.2%
  PT: 12.1 s
  Plat: 118 x10_4/uL
  RBC: 599.6 x10_4/ul
  Ret: 9.9%
  WBC: 86.4 x10_2/uL
  KIDNEY_L: 0.9 g
  KIDNEY_R: 1 g
  KIDNEY_TOTAL: 1.9 g
  LIVER: 10.6 g
  A/G: 2
  ALP: 1741.4 IU/L
  ALT: 35.8 IU/L
  AST: 65.2 IU/L
  BUN: 16.4 mg/dL
  CRE: 0.4 mg/dL
  Ca: 11.2 mg/dL
  Cl: 104.6 meq/L
  DBIL: 0 mg/dL
  GLC: 192.4 mg/dL
  IP: 8.4 mg/dL
  K: 5.3 meq/L
  LDH: 138.4 IU/L
  Na: 138.6 meq/L
  PL: 156.2 mg/dL
  RALB: 3.7 g/dL
  TBIL: 0.016 mg/dL
  TC: 82.2 mg/dL
  TG: 125.2 mg/dL
  TP: 5.5 g/dL
  gamma-GTP: 1.2 IU/L
